In the assay the test system is rat tracheal smooth muscle. Nature of the assay: Proliferation of cultured airway smooth muscle (MTT reduction, cell counts). It counts as cell-based. The note with it: Rattus norvegicus; 50,000 cells/well cultured in 10% FBS for 48 hours; MTT reduction (Figure 3D); read-out: 50% inhibitory concentration. As to the method: Polyclonal horseradish peroxidase anti-rabbit IgG was from Transduction Laboratories (Lexington, KY). M-MLV reverse transcriptase was from Life Technologies (Gaithersburg, MD). All other materials were obtained from Sigma unless specified. Measurement of Cultured Airway Smooth Muscle Proliferation. Rat tracheal smooth muscle was cultured by euthanizing rats with pentobarbital overdose and removal of their tracheas. The posterior tracheal membrane was isolated, minced and digested twice for 30 minutes at 37°C. in HBSS containing 0.2% type IV collagenase and 0.05% type IV elastase. Each enzyme digest was collected and centrifuged for 5 minutes at 500 g at room temperature. The supernatant was removed and the pellet was resuspended in DMEM supplemented with 10% FBS, nonessential amino acids, penicillin (100 U/ml), streptomycin (100 µg/ml) and amphotericin (250 ng/ml). Cells were seeded in this medium into 25-cm^2 flasks at 2 x 10^5 cells per flask and incubated in a humidified atmosphere of 5% CO2/95% air at 37°C. Upon reaching confluence, cells were detached with 0.25% trypsin-0.002% EDTA solution for passage.
Proliferation of cultured airway smooth muscle was quantitated using modification of a previously reported colorimetric method based upon metabolic reduction of the soluble yellow tetrazolium dye 3-[4,5-dimethylthiazol]-2yl-2,5-diphenyl tetrazolium bromide (MTT) to its insoluble purple formazan by the action of mitochondrial succinyl dehydrogenase. See Hirst, S.J., Barnes, P.J., and Twort, C.H.C., "Quantifying proliferation of cultured human and rabbit airway smooth muscle in response to serum and platelet derived growth factor," Am. J. Respir. Cell Mol. Biol., 7, 574-581 (1992). This assay empirically distinguishes between dead and living cells. For proliferation studies, cells were seeded into 24-well uncoated plastic plates at 15,000-50,000 cells per well and cultured with DMEM and mitogens. After 24-96 hours the medium was replaced with 1 ml/well fresh DMEM containing 100 µg/ml MTT and 0.5% FBS, and plates were incubated an additional hour MTT-containing medium was removed, cells were washed twice with 1 ml of sterile Dulbecco's modified phosphate buffered saline without Ca^2+ or Mg^2+ (DPBS), 0.5 ml dimethylsulfoxide (DMSO) was added to each well, and the absorbance of the solubilized purple formazan dye was measured at 540 nm on a Shimadzu UV160U spectrophotometer. A total of 4-6 wells was studied at each treatment condition.
The optimum concentration of FBS for use as a mitogenic stimulus was determined by incubating 15,000 cells per well with DMEM containing 0.25, 1.0, 5.0 or 10.0% FBS and MTT reduction was determined after 24, 48, 72 or 96 hours. […] After 24 hours, cells were washed twice with DPBS, fixed and permeabilized by two sequential 5 minute exposures to ice-cold methanol, stained with Giemsa-modified Wright's stain for 3 minutes and washed with DPBS. Cell counts were performed on 10 random fields at 40 power using a 0.01-cm^2 ocular grid. Cell Culture Treatments for Measurement of Airway Smooth Muscle Proliferation. The effect of dehydroepiandrosterone (DHEA) and 16α-bromoepiandrosterone (16α-BrEA) on cellular proliferation was studied in cultures stimulated with 0.5-10% FBS or 1-50 ng/ml recombinant human platelet derived growth factor (PDGF-AA). […] See, for example, the method of Le, Y. Y. , and Xu, R.B., "The molecular mechanism of the action of the pharmacological doses of glucocorticoids. Studies on the low-affinity glucocorticoid receptor," Receptor, 5, 63-69 (1995).

Take `C[C@@H]1C[C@H]2[C@@H]3CCC4=CC(=O)C=C[C@]4(C)[C@@]3(F)[C@@H](O)C[C@]2(C)[C@@]1(O)C(=O)CO` [dexamethasone, reference compound]: the IC50 was determined as 10 µM.

The record behind these values is EP0934745B1, “Use of androsterone derivatives for inhibiting DNA binding of ap-1 and airway smooth muscle proliferation” (CHARLOTTE-MECKLENBURG HOSPITAL doing business as Carolinas …, priority 1998, dated 1999).
